US20230165872A1, “COMBINATION OF BCMA-DIRECTED T CELL THERAPY AND AN IMMUNOMODULATORY COMPOUND” (Juno Therapeutics, Inc., priority 2020, published 2023)

Tests used:
Ikaros = assay: Intracellular Ikaros expression in BCMA-bead stimulated anti-BCMA CAR T cells (flow cytometry, MFI); assay type: cell-based, human
Experimental: (§1) A BCMA-Fc fusion protein containing the extracellular domain of human BCMA and a human IgG1Fc was conjugated to beads by covalently coupling to the surface of commercially available tosyl-activated magnetic beads having a diameter of approximately […] (M-450 beads, ThermoFisher, Waltham Mass.) (see e.g. International published PCT App. No. WO2019/027850). Following incubation, anti-BCMA CAR-expressing T cells were stained with antibodies and analyzed by flow cytometry to assess intracellular levels of Ikaros and Aiolos in CD4+CAR+ or CD8+CAR+ cells, as measured by median fluorescence intensity (MFI). Median fluorescence intensity (MFI) values for Ikaros and Aiolos were normalized and calculated as a percentage relative to vehicle control.

anti-BCMA CAR T cells = assay: Viability and count of anti-BCMA CAR T cells after 7-day chronic stimulation with BCMA-conjugated beads; assay type: cell-based, human
Experimental: (§2) Cryofrozen anti-BCMA CAR T cells, produced substantially as described in Example 1 and formulated at a 1:1 ratio of CD4+ and CD8^+ T cells, were thawed. To subject cells to chronic stimulation conditions, the anti-BCMA CAR+ T cells were stimulated with 50 μg BCMA conjugated beads (diameter about 4.5 μm from a 50 μg/ml BCMA-conjugated bead composition, generated as described in Example 2) at a ratio of T cells to beads of 1:1 in the presence or absence of Compound A (iberdomide, (S)-3-[4-(4-morpholin-4-ylmethyl-benzyloxy)-1-oxo-1,3-dihydro-isoindol-2-yl]-piperidine-2,6-dione) (1 nM or 10 nM), Compound B ((S)-4-(4-(4-(((2-(2,6-dioxopiperidin-3-yl)-1-oxoisoindolin-4-yl)oxy)methyl)benzyl)piperazin-1-yl)-3-fluorobenzonitrile) (0.1 nM or 1 nM), or DMSO vehicle control. The cells were then incubated at 37° C., 5% CO2 for 7 days.
At day 7, anti-BCMA CAR cells of all the samples were counted using a cellometer machine and stained for flow cytometric analysis. Cells were stained with a viability dye and analyzed by flow cytometry. Viability and count of anti-BCMA CAR T cells was increased in the presence of Compound A or Compound B.
(§3) Cryofrozen anti-BCMA CAR T cells, produced substantially as described in Example 1 and formulated at a 1:1 ratio of CD4+ and CD8+ T cells, were thawed. […] The cells were then incubated at 37° C., 5% CO2 for 7 days.
At day 7, anti-BCMA CAR cells of all the samples were counted using a cellometer machine and stained for flow cytometric analysis. Cells were stained with a viability dye and analyzed by flow cytometry.

RPMI-8226 target cells [1] = assay: Acute co-culture cytokine secretion of anti-BCMA CAR T cells with RPMI-8226; assay type: cell-based, human
Experimental: Anti-tumor effects of anti-BCMA CAR T cells, alone and in combination with cell immunomodulatory compounds Compound A (iberdomide, (S)-3-[4-(4-morpholin-4-ylmethyl-benzyloxy)-1-oxo-1,3-dihydro-isoindol-2-yl]-piperidine-2,6-dione) or Compound B ((S)-4-(4-(4-(((2-(2,6-dioxopiperidin-3-yl)-1-oxoisoindolin-4-yl)oxy)methyl)benzyl)piperazin-1-yl)-3-fluorobenzonitrile), were assessed in two different BCMA-expressing target multiple myeloma cell lines RPMI-8226 or OPM-2. Anti-BCMA CAR+ T cells were generated as described in Example 1.
The anti-BCMA CAR-expressing T cells were incubated with target cells, RPMI 8226 (BCMA^med human multiple myeloma cell line) or OPM2 cells (BCMA^med human multiple myeloma cell line) target cells, at an E:T ratio of 1:1. The co-culture incubation with target cells was carried out in the presence of Compound A (0.01 nM, 0.1 nM, 1 nM, 10 nM, 100 nM, 1000 nM, or 10,000 nM) or Compound B (0.01 nM, 0.1 nM, 1 nM, 10 nM, 100 nM, 1000 nM, or 10,000 nM).

RPMI-8226 target cells [2] = assay: Rescue: rechallenge of chronically stimulated anti-BCMA CAR T cells with RPMI-8226 in the presence of compound; assay type: cell-based, human; conditions: Example 4: Compound A 1 or 10 nM, Compound B 0.1 or 1 nM during re-challenge
Experimental: Anti-BCMA CAR-expressing T cells, produced as described in Example 1, were stimulated with 50 μg BCMA conjugated beads (diameter about 4.5 μm from a 50 μg/ml BCMA-conjugated bead composition) substantially as described in Example 3 to induce chronic stimulation (to produce hypofunctional, exhausted T cells). After the chronic stimulation, the CAR-T cells were rechallenged with RPMI-8226 target cells (labeled with NucLightRed as described in Example 2) at a 1:1 (effector:target) ratio in the presence of (rescued) with Compound A (iberdomide, (S)-3-[4-(4-morpholin-4-ylmethyl-benzyloxy)-1-oxo-1,3-dihydro-isoindol-2-yl]-piperidine-2,6-dione) (1 nM or 10 nM), Compound B ((S)-4-(4-(4-(((2-(2,6-dioxopiperidin-3-yl)-1-oxoisoindolin-4-yl)oxy)methyl)benzyl)piperazin-1-yl)-3-fluorobenzonitrile) (0.1 nM or 1 nM), or DMSO vehicle control.
Killing activity and cytokine production were assessed as described in Example 3.
Studies were undertaken to determine whether Compound A (iberdomide, (S)-3-[4-(4-morpholin-4-ylmethyl-benzyloxy)-1-oxo-1,3-dihydro-isoindol-2-yl]-piperidine-2,6-dione) rescued anti-BCMA CAR T cell function following chronic stimulation. To directly stimulate via CAR engagement to induce chronic stimulation of cells, anti-BCMA CAR T cells were stimulated with BCMA conjugated beads (diameter about 4.5 μm from a 50 μg/ml BCMA-conjugated bead composition, generated as described in Example 9) at a ratio of T cells to beads of 1:1. The cells were then incubated at 37° C., 5% CO2 for 7 days.
Cultures were incubated at 37° C., 5% CO2, and images were taken every 2 hours over 5-7 days with an Essen IncuCyte Zoom live-cell analysis system to track NucLightRed-positive target cells.

PBMCs = conditions: cultures of PBMCs; cited from earlier work
Aiolos = assay: Intracellular Aiolos expression in BCMA-bead stimulated anti-BCMA CAR T cells (flow cytometry, MFI); assay type: cell-based, human; conditions: CD4+CAR+ or CD8+CAR+ cells; 24 or 72 hours; lenalidomide 1000 nM, Compound A 1, 10, 100 nM, Compound B 0.1, 1, 10 nM
Experimental: as §1

RPMI-8226 target cells [3] = assay: Rechallenge with RPMI-8226 after concurrent compound treatment during chronic stimulation (cytolysis, cytokines); assay type: cell-based, human
Experimental: as §2
CAR T cells that had been stimulated for 7 days with cultured with 50 μg BCMA-coated magnetic beads concurrently in the presence of the cell immunomodulatory compound were washed free of compound and cells were debeaded. The anti-BCMA CAR T cells that had been stimulated for 7 days with BCMA-conjugated beads in the presence of the compounds were co-cultured with RPMI-8226 target cells (labeled with NucLightRed as described in Example 2) at a 1:1 (effector:target) ratio. Killing activity was monitored over 200 hours by measuring NucLightRed (NLR)-positive target cells. The total cell number of NLR-expressing RPMI targets cells was determined by normalizing cell number over time to the number of cells at the initiation of the co-culture (t=0) for each respective condition.
For cytokine measurements, cell-free supernatants were collected from the cytolytic assay described above 24 hours after plating. Cytokine levels of IFNg, IL-2, and TNFalpha (TNFα) was measured in the supernatant.
as §3
Cytolytic activity was assessed using OPM-2 and RPMI-8226 BCMA expressing target cells transduced with NucLight Red, a red fluorescent protein detectable by microscopy, to allow for measurement of target cell death. Anti-BCMA CAR T cells that had been stimulated for 7 days with BCMA-conjugated beads in the presence of the compounds were co-cultured with RPMI-8226 target cells at a 0.3:1 (effector:target) or 1:1 ratio. Cultures were incubated at 37° C., 5% CO2, and images were taken every 2 hours over 5-7 days with an Essen IncuCyte Zoom live-cell analysis system to track NucLightRed-positive target cells.
For cytokine measurements, cell-free supernatants were collected from the cytolytic assay described above 24 hours after plating. Cytokine levels were measured using IFNg, IL-2, and TNFalpha Meso Scale Discovery cytokine kit (Mesoscale) according to manufacturer instructions. The data was analyzed using GraphPad Prism to calculate absolute changes in cytokine relative to the DMSO vehicle control.

[4] = Example 3: day 7, Compound A 1 or 10 nM, Compound B 0.1 or 1 nM
[5] = Example 7: day 7, lenalidomide 1000 nM, Compound A 0.1, 1 or 10 nM, FIG. 8

Compound	intracellular Ikaros expression (MFI, percentage relative to vehicle control) (Ikaros; CD4+CAR+ or CD8+CAR+ cells, 24 or 72 hours, lenalidomide 1000 nM, Compound A 1, 10, 100 nM, Compound B 0.1, 1, 10 nM)	potency in decreasing Ikaros and Aiolos expression, compared with lenalidomide (Ikaros; stimulated anti-BCMA CAR T cells)	count of anti-BCMA CAR T cells (anti-BCMA CAR T cells; [4])	viability of anti-BCMA CAR T cells (anti-BCMA CAR T cells; [4])	concentration needed for effect on cytokine production, compared with Compound A (RPMI-8226 target cells [1]; acute co-culture)	CAR T cell cytokine production (RPMI-8226 target cells [1]; similar studies, target cell line not stated)	rescue of chronically activated CAR T cells (RPMI-8226 target cells [2])	activation of T cells (PBMCs)	loss of Aiolos and Ikaros (PBMCs)	production of IL-2 and IFN-γ (PBMCs)	intracellular Aiolos expression (MFI, percentage relative to vehicle control) (Aiolos)	cytolytic activity after long-term stimulation in the presence of compound (RPMI-8226 target cells [3]; Example 7: E:T 0.3:1, lenalidomide 1000 nM, Compound A 1 or 10 nM, FIG. 9A)	production of IFN-gamma (RPMI-8226 target cells [3]; Example 7: supernatant at 24 hours, relative to DMSO, FIG. 9B)	production of IL-2 (RPMI-8226 target cells [3]; Example 7: supernatant at 24 hours, relative to DMSO, FIG. 9C)	production of TNF-alpha (RPMI-8226 target cells [3]; Example 7: supernatant at 24 hours, relative to DMSO, FIG. 9D)	count of anti-BCMA CAR T cells (anti-BCMA CAR T cells; [5])	viability of anti-BCMA CAR T cells (anti-BCMA CAR T cells; [5])
N#Cc1ccc(N2CCN(Cc3ccc(COc4cccc5c4CN([C@H]4CCC(=O)NC4=O)C5=O)cc3)CC2)c(F)c1 [Compound B, (S)-4-(4-(4-(((2-(2,6-dioxopiperidin-3-yl)-1-oxoisoindolin-4-yl)oxy)methyl)benzyl)piperazin-1-yl)-3-fluorobenzonitrile]	concentration dependent decrease	more potent than lenalidomide	increased	increased	enhanced effects at lower concentrations compared to Compound A	increased	able to rescue chronically activated CAR T cells to improve functionality	activation of T cells	induces loss of Aiolos and Ikaros	increased production of IL-2 and IFN-γ	concentration dependent decrease	–	–	–	–	–	–
Nc1cccc2c1CN(C1CCC(=O)NC1=O)C2=O (centres unmarked) [lenalidomide, reference compound]	–	–	–	–	–	–	–	–	–	–	–	increased cytolytic activity	increased production	increased production	increased production	increased	increased
